# Source: US20080249176A1, “Methods and Compositions for the Treatment of Myocardial Conditions” (priority 2004, published 2008)
# Legend:
# [1] = test system: Na^+—K^+ pump; assay: Whole-cell patch clamp measurement of Na+-K+ pump current (Ip) in isolated cardiac myocytes; type: cell-based, rabbit
# Description: The whole-cell patch clamp technique (Hamill et al, 1981; Buhagier et al, 2004; Hansen et al, 2002) was used to examine the effect of β3 adrenoceptor stimulation on the Na^+—K^+ pump in isolated cardiac myocytes.
# With the whole-cell patch clamp technique myocytes are suspended in a tissue bath mounted on the stage of an inverted microscope. A fine glass pipette is attached to the cell membrane and gentle suction applied to rupture the membrane patch directly under the tip of the glass pipette. This allows the intracellular compartment of the myocyte to be perfused with solution contained in the patch pipette. It also allows access of drugs and compounds to the intracellular compartment. Control of the composition of the extracellular solution in the tissue bath is achievable. The technique also allows control of membrane voltage and measurement of total membrane current.
# The Na^+—K^+ pump's 3Na^+:2K^+ exchange ratio generates a current (Ip) that can be measured as the shift in holding current of the patch-clamped myocyte that is induced by pump blockade with 100 μM ouabain.
# In the whole-cell configuration the bath was perfused with modified Tyrode's solution which contained (in mmol/L) NaCl 140; KCl 5.6; CaCl2 2.16; MgCl2 1; NaH2PO4 0.44; glucose 10 and Na-glutamate 9; N-2-hydroxyethyl piperazine-N′-2-[…] (HEPES) 10. The solution was titrated to a pH of 7.40±0.01 at 35° C. with NaOH.
# For measurement of Ip the system was switched to a superfusate that usually was identical to the modified Tyrode's solution except that it was nominally Ca^2+-free and contained 0.2 mmol/L CdCl2 and 2 mmol/L BaCl2.
# Wide-tipped patch pipettes (4-5 μm) were filled with solutions containing (in mmol/L) HEPES 5; MgATP 2; ethylene glycol-bis(β-aminoethyl ether)-N,N,N′,N′-tetraacetic acid (EGTA) 5; KCl 70 mmol/L. Osmotic balance was maintained with 80 mmol/L tetramethylammonium chloride (TMA-Cl). The solutions were titrated to a pH of 7.05±0.01 at 35° C. with 1 mmol/L TMA-OH. Ip was identified at a holding potential of −40 mV as the shift in holding current induced by Na^+—K^+ pump blockade with 100 μmol/L ouabain 10-15 minutes after the whole-cell configuration had been established. […] Details of patch pipette characteristics and equipment and criteria for defining Ip have been reported previously (Buhagiar et al, 1999).
# The whole-cell patch clamp technique was similar to that described above except that extracellular Na^+ was eliminated (NaCl was replaced with N-methyl-D-glucamine (NMG.Cl)) to rule out any possible influx of Na^+ across the cell membrane.
# [2] = test system: model of ischaemic cardiomyopathy with severe heart failure induced by repeated coronary microembolisation in sheep; assay: Sheep heart failure model, left ventricular end systolic pressure-volume relationship (ESPVR); type: in vivo; conditions: intravenous infusion, increasing doses, mean of 3 sheep, FIG. 6
# Experimental: To examine the effect of acute activation of the β3-receptor we used a model of ischaemic cardiomyopathy with severe heart failure induced by repeated coronary microembolisation in sheep (Huang, Y et al., Am J Physiol 286: H2141-50, 2004). The model is stable and reflects the human condition well (Huang et al, 2004).
# BRL 37344 was administered by intravenous infusion over a period of 8 min, starting with the lowest dose of the protocol. After an additional 5 min pressure-volume relationships were determined as described (Huang et al., 2004). The procedure was then repeated in an identical fashion using a larger dose of BRL 37344. The left ventricular end systolic pressure-volume relationship (ESPVR) was used as an index of cardiac performance. ESPVR is relatively independent of confounding factors such as pre- and after-load and heart rate, and is widely accepted as a good index of left ventricular function.
# Results are shown in FIG. 6, both before and after induction of heart failure. The independent variable on the abscissa indicates the dose in microgram BRL 37344 per kg weight of the sheep. Note the logarithmic increment in dose. The mean of ESPVR measured in 3 different sheep before and after induction of severe heart failure is shown on the ordinate. […]
# [3] = test system: PKA; conditions: H-89 0.5 μM; cited from earlier work
smiles,measurement,setting,value
O=C(Nc1ncnc2c1ncn2[C@@H]1O[C@@H]2COP(=O)(O)OC2C1O)c1ccccc1 (stereo in doubt) [6-Bnz-cAMP],Effect on Ip,"[1]; 100 μM 6-Bnz-cAMP in patch pipette solution, NA-free control superfusate, FIG. 5",significant decrease in Ip
C[C@H](Cc1ccc(OCC(=O)O)cc1)NC[C@H](O)c1cccc(Cl)c1 [BRL 37344],"BRL 37344-induced stimulation of the Na,K-pump in the absence of extracellular Na^+","[1]; 10 nM BRL 37344, NaCl replaced by NMG.Cl, FIG. 3",persisted in the absence of extracellular Na^+
same,"Na,K-pump activity at 100 nM in comparison with activity observed with 10 nM","[1]; 100 nM vs 10 nM BRL 37344, pipette Na 10 mM, FIG. 1",apparent lower activity
same,Na^+—K^+ pump current (Ip) in comparison with normal controls,"[1]; BRL 37344 1 nM, 10 nM and 100 nM, pipette Na 10 mM, FIG. 1",significantly stimulates
same,Slope of linear regression of log dose vs. ESPVR,[2]; normal sheep (before induction of heart failure),trend towards a negative slope
same,Slope of linear regression of log dose vs. ESPVR,[2]; sheep after induction of severe heart failure,significantly positive
"Cl.Cl.O=S(=O)(NCCNCC=Cc1ccc(Br)cc1)c1cccc2cnccc12 [H-89, N-[2-(p-Bromocinnamylamino)ethyl]-5-isoquinolinesulfonamide dihydrochloride]",Effect on 6-Bnz-cAMP-induced decrease in Ip,"[1]; H-89 0.5 μM + 6-Bnz-cAMP 100 μM in pipette solution, FIG. 5",reversed the 6-Bnz-cAMP-induced decrease in Ip
same,Effect on PKA-mediated Na^+—K^+ pump inhibition,[3],abolishes PKA-mediated Na^+—K^+ pump inhibition
"NC[C@H](O)c1ccc(O)c(O)c1 [NA, noradrenaline]",NA-induced increase in Ip with β1/β2 blockade,"[1]; 10 nM NA + 1 μM nadolol, FIG. 4",persisted in the presence of nadolol
same,NA-induced increase in Ip with PKA blockade,"[1]; 10 nM NA, 0.5 μM H-89 in patch pipette solution, FIG. 4",persisted with PKA blockade
same,Effect on Ip,"[1]; 10 nM NA, FIG. 4",induced an increase in Ip
CC(C)(C)NCC(O)COc1cccc2c1CC(O)C(O)C2 (stereo not drawn) [nadolol],"Na,K-pump activity with nadolol in the presence of 100 nM BRL 37344 compared to 100 nM BRL 37344 alone","[1]; nadolol 1 μM + 100 nM BRL 37344 in superfusate, FIG. 2","increased, although not quite significantly"
